Here are results for two molecules from publication PMC2857062 (The Journal of biological chemistry, 2010).

One may read the Kd as a measure of binding affinity in units of concentration. A higher Kd goes with lower affinity.

For assay [1], the target named is Dock1 DHR-1 domain (422-619) (Homo sapiens, UniProt Q14185). Put plainly: ITC. Type of assay: binding.
Assay [2] concerns the target Dock1 DHR-1 domain (422-619) (Homo sapiens, UniProt Q14185, D436Y). In words: ITC. Type of assay: binding.

Chain of Dock1 DHR-1 domain (422-619) (Homo sapiens, UniProt Q14185) (Q14185 422-619): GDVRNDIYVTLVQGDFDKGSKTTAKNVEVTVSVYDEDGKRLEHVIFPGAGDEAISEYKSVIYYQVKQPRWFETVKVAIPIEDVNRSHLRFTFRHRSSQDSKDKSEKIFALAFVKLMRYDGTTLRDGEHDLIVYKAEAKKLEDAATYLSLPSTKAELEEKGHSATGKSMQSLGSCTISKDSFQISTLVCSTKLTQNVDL
Chain of Dock1 DHR-1 domain (422-619) (Homo sapiens, UniProt Q14185, D436Y) (Q14185 422-619 D436Y): as the sequence (Q14185 422-619) above, with D15Y counted along it

`O=P(O)(O)O[C@H]1[C@H](O)[C@@H](OP(=O)(O)O)[C@H](OP(=O)(O)O)[C@@H](OP(=O)(O)O)[C@H]1O` [Ins(1,3,4,5)P4]: the affinity in assay [1], expressed as Kd, was 7.7 ± 3 µM. As for `CCCCCCCC(=O)OC[C@H](COP(=O)(O)O[C@H]1[C@H](O)[C@@H](OP(=O)(O)O)[C@H](OP(=O)(O)O)[C@@H](OP(=O)(O)O)[C@H]1O)OC(=O)CCCCCCC` [di-C8-PtdIns(3,4,5)P3], binding in assay [2] was put at a Kd of 3.4 µM.
